In US12521425B2, “Method of liver cancer treatment with safranal-based formulations” (priority 2019, dated 2026):

Tested on: HepG2 cells
Experiment: Western blotting of safranal-treated cells
Assay type: cell-based
Description: Western blotting. HepG2 cells were seeded at a density of 1×10^6 cells/100 mm plate and allowed to attach before being treated with safranal. Cells were treated with 500 μM of safranal for different time intervals (6-48 hours) for time-dependent experiments. Whole cell lysates were separated using 10-15% SDS polyacrylamide gel electrophoresis. Proteins were transferred onto PVDF membranes prior to incubation with various primary antibodies p-histone H3, Cdc2, Cyclin B1, CDC25B, p21, p53, H2AX, p-H2AX, TOP1, TDP1, Cleaved PARP1, PCNA, HDAC1, HDAC2, Cleaved Caspase-9, Cleaved Caspase-8, Bax, Bcl-2, GRP78, ATF6, IRE1, PERK, p-eIF2S1, […], and CHOP. GAPDH, β-actin, and α-Tubulin were used as loading controls. Protein bands were detected using WesternSure Chemiluminescent Substrate (LI-COR) and C-DiGit blot scanner (LI-COR).

## CC1=C(C=O)C(C)(C)CC=C1 [safranal]
HepG2, 500 μM
  HDAC1 expression: inhibited
  HDAC2 expression: remained unchanged
HepG2, 500 μM, 6-48 hours
  Cdc2 expression: inhibit Cdc2 expression starting at 12 hours
  H2AX expression: remained unchanged
  expression of Cyclin B1 and CDC25B: inhibiting expression of Cyclin B1 and CDC25B starting at 6 hours
  expression of phosphorylated histone H3: inhibited dramatically
  p-H2AX (DNA damage marker): observed starting at 6 hours
  proliferation marker PCNA: inhibition
HepG2, 500 μM, up to 48 hours
  CHOP/DDIT3 and phosphorylated eIF2α: upregulated
  expression of p21: inhibited
  expressions of GRP78 and of p27: induced
  main sensors of UPR, PERK, MEL and ATF6: general upregulation trend
HepG2, 6, 12, 24, 48 hours
  TDP1 level: lower levels
  TOP1 level: higher levels
HepG2, time-based
  caspase-8 cleavage: cleaved starting at 24 hours
  caspase-9 cleavage: cleaved starting at 12 hours
  ratio of Bax to Bcl-2: increased
